The first experiment deals with T1, Histamine H3 receptor (Homo sapiens, UniProt Q9Y5N1). Nature of the experiment: Ratio of dispyrin IC50 to compound IC50 for human histamine H3 receptor.
T1 sequence (Q9Y5N1 whole entry): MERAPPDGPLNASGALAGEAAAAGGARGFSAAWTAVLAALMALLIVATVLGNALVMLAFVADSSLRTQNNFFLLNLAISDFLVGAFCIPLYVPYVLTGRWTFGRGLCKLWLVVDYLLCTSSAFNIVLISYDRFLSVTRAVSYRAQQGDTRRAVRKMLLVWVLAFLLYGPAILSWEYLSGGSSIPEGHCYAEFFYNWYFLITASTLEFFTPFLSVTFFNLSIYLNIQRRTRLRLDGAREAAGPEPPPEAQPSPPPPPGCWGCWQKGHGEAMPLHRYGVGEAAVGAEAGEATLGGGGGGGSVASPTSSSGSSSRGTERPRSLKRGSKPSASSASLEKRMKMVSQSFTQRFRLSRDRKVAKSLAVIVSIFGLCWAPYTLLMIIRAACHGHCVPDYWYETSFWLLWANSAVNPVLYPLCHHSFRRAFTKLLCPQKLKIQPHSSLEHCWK
As to `O=C(NCCc1ccc(OCCN2CCCC2)c(Br)c1)c1nccs1`, the Ratio IC50 is 33.
On the same count and under the same terms, the same measure for `O=C(NCCc1ccc(OCCN2CCCC2)c(Br)c1)c1cc(Br)cs1`: 13.

The next experiment has as its target T1, Histamine H3 receptor. Nature of the experiment: Ratio of dispyrin Ki to compound Ki for human histamine H3 receptor.
As to `O=C(NCCc1ccc(OCCN2CCCC2)c(Br)c1)c1nccs1`, the Ratio Ki came to 33.
As to `O=C(NCCc1ccc(OCCN2CCCC2)c(Br)c1)c1cc(Br)cs1`, the Ratio Ki was 13.

For the next experiment, the target named is T1, Histamine H3 receptor. Nature of the experiment: Displacement of [3H]SMT from human histamine H3 receptor.
For the molecule `CN1CCCC(COc2ccc(CCNC(=O)c3cc(Br)c[nH]3)cc2Br)C1` (centres undefined), the half-inhibitory concentration (IC50) (in general, the midpoint of a concentration-inhibition curve) stood at 2.94 µM and the affinity, expressed as Ki, was 1.33 µM.
Consider `CN1CCCC(COc2ccc(CCNC(=O)c3ccc[nH]3)cc2Br)C1` (centres undefined), for which the affinity corresponds to a Ki of 1.52 µM.
Take `O=C(NCCc1ccc(OCCN2CCCC2)c(Br)c1)c1cncs1`: the 50% inhibitory concentration (IC50) is 0.26 µM and the affinity corresponds to a Ki of 0.12 µM.
For the molecule `O=C(NCCc1ccc(OCCN2CCOCC2)c(Br)c1)c1cc(Br)c[nH]1`, the IC50 came out at 29.1 µM and the Ki (as a rule, the equilibrium dissociation constant of an inhibitor or competing ligand from its target) worked out at 12.9 µM.
`CN1CCCC(COc2ccc(CCNC(=O)c3ccc(Br)o3)cc2Br)C1` (centres undefined): the IC50 is 4.56 µM.
Take `CN(C)CCOc1ccc(CCNC(=O)c2ccc[nH]2)cc1Br`: the inhibitory constant (Ki) is 1.55 µM. This counts as single-digit micromolar.
Take `CN(C)CCCOc1ccc(CCNC(=O)c2cccn2C)cc1Br`: the half-maximal inhibitory concentration (IC50) came to 3.99 µM and the affinity, expressed as Ki, was 1.76 µM.
`CC1CCCN1CCOc1ccc(CCNC(=O)c2cc(Br)cs2)cc1Br` (single isomer, unassigned; enantiomer 2): the IC50 was 0.75 µM and the inhibition constant Ki is 0.33 µM.
The matching figures for `O=C(NCCc1ccc(OCCN2CCCC2)c(Br)c1)c1nccs1`: 0.07 µM and 0.03 µM.
The matching figures for `O=C(NCCc1ccc(OCCN2CCOCC2)c(Br)c1)c1ccc(Br)o1`: 73.2 µM and 32.5 µM.
For the molecule `CN(C)CCCOc1ccc(CCNC(=O)c2ccc[nH]2)cc1Br`, the inhibition constant Ki came out at 1.36 µM.
The molecule `O=C(NCCc1ccc(OCCN2CCC(F)C2)c(Br)c1)c1cc(Br)cs1` (stereo in doubt; 18d) returned a concentration for half-maximal inhibition (IC50) of 2.52 µM and a Ki of 1.15 µM.
In the same order, the values of `O=C(NCCc1ccc(OCCN2CCOCC2)c(Br)c1)c1cc(Br)cs1` are 30.4 µM and 13.5 µM.
Molecule `Cn1cccc1C(=O)NCCc1ccc(OCCN2CCOCC2)c(Br)c1` displayed an IC50 of 39.6 µM and an inhibition constant (Ki) of 17.6 µM.
Molecule `CN(C)CCCOc1ccc(CCNC(=O)c2ccc(Br)o2)cc1Br` yielded a Ki of 2.29 µM.
On to `CN(C)CCOc1ccc(CCNC(=O)c2cc(Br)cs2)cc1Br`, for which the IC50 was 1.52 µM.
`O=C(NCCc1ccc(OCCN2CCCC2)c(Br)c1)c1cnco1` came in with a half-inhibitory concentration (IC50) of 0.08 µM and an inhibition constant Ki of 0.03 µM.
As for `CN1CCCC(COc2ccc(CCNC(=O)c3cc(Br)cs3)cc2Br)C1` (centres undefined), the IC50 came to 3.73 µM and the affinity corresponds to a Ki of 1.25 µM.
As for `Cn1cccc1C(=O)NCCc1ccc(OCCN2CCCC2)c(Br)c1`, the IC50 was 0.31 µM.
The molecule `CN(C)CCOc1ccc(CCNC(=O)c2cccn2C)cc1Br` had a Ki of 2.13 µM.
In turn, `O=C(NCCc1ccc(OCCN2CCOCC2)c(Br)c1)c1ccc[nH]1` returned an IC50 of 59.2 µM and a Ki of 26.4 µM.
In the same order, the values of `CC1CCCN1CCOc1ccc(CCNC(=O)c2cc(Br)cs2)cc1Br` (single isomer, unassigned; enantiomer 1) are 0.71 µM and 0.31 µM.
The matching figures for `CN1CCCC(COc2ccc(CCNC(=O)c3cccn3C)cc2Br)C1` (centres undefined): 3.62 µM and 1.65 µM.
The matching figures for `O=C(NCCc1ccc(OCCN2CCC(F)C2)c(Br)c1)c1cc(Br)cs1` (single isomer, unassigned; enantiomer 1): 2.11 µM and 1.1 µM.
